Among the test systems are A498 renal; IGROV1 ovarian; NCI-H522 lung; OVCAR-4 ovarian; OVCAR-5 ovarian; SW-620 colon; UACC-257 melanoma; SF-295 CNS; RXF 393 renal.
What all share (test): inhibition of tumour cell growth, NCI panel, 48 h

Each structure is given as a SMILES string.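 All cell lines were grown in 96-well plates and treated with compound for 48 hours. Abbreviation: GI50, concentration required for 50% inhibition of growth. TGI: concentration producing complete growth inhibition.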 Where only a bound is given, the exact number is not on record here.

For `CCOc1ccc(NC(=O)C(=O)C(C(=O)c2ccc3ccccc3c2)C2OC(=O)c3ccccc32)cc1` (stereo unspecified), the TGI in the test on A498 renal is 45.8 µM; in the test with IGROV1 ovarian, 52.5 µM; in the test with NCI-H522 lung, 31.6 µM; with OVCAR-4 ovarian, 44.5 µM; in the test on OVCAR-5 ovarian, 84.9 µM; in the test on SW-620 colon, 92.6 µM. The molecule also had a TGI in the test with UACC-257 melanoma of 81.9 µM.

Regarding `CCCCCCCCC/C=C1\CCC(CN(C)C)C1=O` (stereo unspecified), the TGI with A498 renal was found to be 6.4 µM; in the test with IGROV1 ovarian, 6.53 µM; with NCI-H522 lung, 4.78 µM; with OVCAR-5 ovarian it was 28 µM; in the test with SF-295 CNS, 12.7 µM; in the test with SW-620 colon, 3.08 µM. This molecule also displayed a TGI in the test on UACC-257 melanoma of 3.52 µM.

Consider `Nc1ncnc2c1c(-c1ccc(Oc3ccccc3)cc1)nn2C[C@@H]1SSC[C@H]1O`, for which the GI50 in the test with A498 renal was 2.18 µM; in the test on IGROV1 ovarian it was 1.34 µM; in the test on NCI-H522 lung, 2.08 µM; with OVCAR-4 ovarian it was 2.12 µM; in the test with OVCAR-5 ovarian, 3.47 µM; with RXF 393 renal, 1.82 µM. Besides, the GI50 was 2.7 µM in the test on SF-295 CNS, 17.3 µM with SW-620 colon and 1.44 µM in the test with UACC-257 melanoma. Moreover, the TGI with A498 renal was 5.53 µM; in the test on IGROV1 ovarian, 4.2 µM; in the test on NCI-H522 lung, 7.18 µM; in the test with OVCAR-4 ovarian, more than 83.4 µM; in the test with OVCAR-5 ovarian it was 26.6 µM; with RXF 393 renal, 5.18 µM. The TGI in the test on SF-295 CNS turned out to be 9.25 µM; in the test on SW-620 colon it was 55 µM; in the test with UACC-257 melanoma, 7.56 µM.

Take `CNC(=O)OCc1c2ccncc2c(C)c2c1[nH]c1ccc(OC)cc12`: the TGI in the test with A498 renal is 0.458 µM; in the test on IGROV1 ovarian, 4.56 µM; with NCI-H522 lung it was 1.13 µM; in the test with OVCAR-4 ovarian it was 1.13 µM; in the test with OVCAR-5 ovarian, 0.808 µM; in the test with SF-295 CNS, more than 100 µM. Also, the TGI in the test on SW-620 colon is more than 100 µM.

In the case of `CCOC(=O)c1cc2c(n1Cc1cc(OC)c(OC)c(OC)c1)-c1oncc1CCC2`, the GI50 with A498 renal was 0.0602 µM; in the test on IGROV1 ovarian, 0.147 µM; in the test with NCI-H522 lung, 0.0208 µM; in the test on OVCAR-4 ovarian, 1.36 µM; in the test with OVCAR-5 ovarian, 0.481 µM; in the test on RXF 393 renal, 0.126 µM. Also, the GI50 in the test on SW-620 colon was 0.186 µM; in the test with UACC-257 melanoma, 0.177 µM. The TGI in the test with A498 renal was 0.435 µM; in the test with IGROV1 ovarian, 5.36 µM; in the test on NCI-H522 lung, 0.073 µM; with OVCAR-4 ovarian it was more than 67.4 µM; in the test on OVCAR-5 ovarian it was more than 100 µM; in the test on RXF 393 renal it was more than 100 µM. Also, the TGI was more than 100 µM in the test on SW-620 colon and 28.5 µM in the test with UACC-257 melanoma.

In the case of `C[C@]12CCC(=O)CC1CCCC2=O` (stereo partly specified), the TGI in the test on A498 renal, with IGROV1 ovarian, in the test with NCI-H522 lung, with OVCAR-4 ovarian, in the test with RXF 393 renal and in the test on SF-295 CNS was more than 100 µM throughout. Further, the TGI in the test on SW-620 colon and in the test with UACC-257 melanoma was more than 100 µM throughout.

`CCOC(=O)/C(O)=C(/C(=O)OC)c1ccc(Cl)cc1`: the TGI in the test with A498 renal, in the test with IGROV1 ovarian, in the test with OVCAR-4 ovarian, in the test on OVCAR-5 ovarian, with SF-295 CNS and with SW-620 colon was more than 100 µM in each case. Besides, the TGI with UACC-257 melanoma was more than 100 µM.

`CCCN(CCC)C(=O)C(=O)c1c(N)[nH]n(-c2ccccc2)c1=O`: the TGI in the test with A498 renal, in the test on IGROV1 ovarian, in the test on NCI-H522 lung, in the test with OVCAR-4 ovarian, in the test with OVCAR-5 ovarian and in the test with SF-295 CNS was more than 100 µM throughout. Besides, the TGI in the test with SW-620 colon and in the test with UACC-257 melanoma was more than 100 µM in each case.

`CCN1C(=O)N(CC)C2C1NN=c1s/c(=C\c3ccccn3)c(=O)n12` (stereo unspecified): the GI50 in the test with A498 renal is 0.184 µM; with IGROV1 ovarian, 2.02 µM; in the test with NCI-H522 lung it was 0.69 µM; in the test with OVCAR-4 ovarian, more than 100 µM; with OVCAR-5 ovarian, 4.61 µM; in the test on RXF 393 renal, 1.66 µM. Moreover, the GI50 in the test with SF-295 CNS is 2.72 µM; with SW-620 colon, 0.743 µM; in the test on UACC-257 melanoma it was more than 100 µM. Moreover, the TGI was 2.74 µM in the test with A498 renal; more than 100 µM in the test with IGROV1 ovarian; 10.2 µM in the test on NCI-H522 lung; more than 100 µM in the test with OVCAR-4 ovarian; more than 100 µM in the test on OVCAR-5 ovarian; 5.86 µM with RXF 393 renal. For the same molecule, the TGI in the test with SF-295 CNS, in the test with SW-620 colon and with UACC-257 melanoma was more than 100 µM each time.

Turning to `CN(C)C(=O)c1ccc([N+](=O)[O-])cc1`, the TGI with A498 renal, with IGROV1 ovarian, in the test with NCI-H522 lung, in the test on OVCAR-4 ovarian, in the test with OVCAR-5 ovarian and with RXF 393 renal was more than 100 µM in each case. Moreover, the TGI with SF-295 CNS, with SW-620 colon and with UACC-257 melanoma was more than 100 µM in each case.

`COc1cccc(NC(=O)CC(=O)N2N=C(N3c4ccccc4Sc4ccccc43)CC2c2ccccc2)c1` (stereo unspecified): the TGI in the test on A498 renal, in the test with IGROV1 ovarian, with OVCAR-4 ovarian, in the test with OVCAR-5 ovarian, in the test with RXF 393 renal and in the test on SF-295 CNS was more than 100 µM throughout. For the same molecule, the TGI with SW-620 colon and in the test on UACC-257 melanoma was more than 100 µM each time.

Turning to `CC(=O)[CH-]C(=O)c1ccccc1.CC(=O)[CH-]C(=O)c1ccccc1.CC(=O)[CH-]C(=O)c1ccccc1.[In+3]`, the GI50 in the test on A498 renal was 23.2 µM; in the test on IGROV1 ovarian, 91.4 µM; with NCI-H522 lung, 21.8 µM; in the test on OVCAR-4 ovarian, 78.8 µM; in the test with OVCAR-5 ovarian it was 42.7 µM; in the test on RXF 393 renal, 48.3 µM. In addition, the GI50 is 24.2 µM in the test with SF-295 CNS, 53.1 µM in the test on SW-620 colon and 46.2 µM in the test on UACC-257 melanoma. The TGI was 56.8 µM with A498 renal; more than 100 µM with IGROV1 ovarian; 59.8 µM in the test with NCI-H522 lung; more than 100 µM in the test with OVCAR-4 ovarian; more than 100 µM in the test on OVCAR-5 ovarian; more than 100 µM with RXF 393 renal. Besides, the TGI in the test with SF-295 CNS is 93.5 µM; in the test on SW-620 colon, more than 100 µM; with UACC-257 melanoma, more than 100 µM.

For the origin of these results see PubChem BioAssay (NCI).
